Source: paper PMC11830721 (Frontiers in Pharmacology, 2025)

Legend:
MV4-11 cells = assay: MTT anti-proliferation assay, MV4-11; type: cell-based; conditions: Homo sapiens, 72-h treatment
Method: In addition, the normal hematopoietic cell line was COLO 829BL from ATCC. The cells were maintained in RPMI-1640 medium supplemented with 10% FBS, and 1% penicillin and streptomycin. The cells were cultured in an incubator at 37°C with 5% CO2. […] The high-performance liquid chromatography (HPLC) spectra data for each compound are provided in the (Supplementary Figures S1–S6).
The effects of the test compounds on MV4-11, NB4, and COLO 829BL cell lines were quantitatively evaluated according to the methods previously reported ([Zhou et al., 2022]).

BLK = BLK (Homo sapiens, UniProt P51451); assay: SelectScreen kinase selectivity assay; type: biochemical; conditions: ten-dose 0.25–128 μM
Method: (§1) Following the standardized kinase activity assay protocol as previously reported, we utilized the SelectScreen Kinase Profiling Service (Thermo Fisher Scientific) to determine the kinase selectivity profile of FLIN-4 ([van der Wel et al., 2020]). Through a ten-dose dilution series ranging from 0.25 μM to 128 μM in dose-response experiments, we precisely measured the inhibitory effect of FLIN-4 on the substrate phosphorylation reactions catalyzed by a panel of kinases, and thus ascertained the half-maximal inhibitory concentrations (IC50) for each kinase.

BMX = BMX (Homo sapiens, UniProt P51813); assay: SelectScreen kinase selectivity assay; type: biochemical; conditions: ten-dose 0.25–128 μM
Method: as §1

CDK2 = CDK2 (Homo sapiens, UniProt P24941); assay: SelectScreen kinase selectivity assay; type: biochemical; conditions: ten-dose 0.25–128 μM
Method: as §1

CSF1R = CSF1R (Homo sapiens, UniProt P07333); assay: SelectScreen kinase selectivity assay; type: biochemical; conditions: ten-dose 0.25–128 μM
Method: as §1

DDR1 = DDR1 (Homo sapiens, UniProt Q08345); assay: SelectScreen kinase selectivity assay; type: biochemical; conditions: ten-dose 0.25–128 μM
Method: as §1

DDR2 = DDR2 (Homo sapiens, UniProt Q16832); assay: SelectScreen kinase selectivity assay; type: biochemical; conditions: ten-dose 0.25–128 μM
Method: as §1

EPHA2 = EPHA2 (Homo sapiens, UniProt P29317); assay: SelectScreen kinase selectivity assay; type: biochemical; conditions: ten-dose 0.25–128 μM
Method: as §1

EPHA3 = EPHA3 (Homo sapiens, UniProt P29320); assay: SelectScreen kinase selectivity assay; type: biochemical; conditions: ten-dose 0.25–128 μM
Method: as §1

EPHA4 = EPHA4 (Homo sapiens, UniProt P54764); assay: SelectScreen kinase selectivity assay; type: biochemical; conditions: ten-dose 0.25–128 μM
Method: as §1

EPHA5 = EPHA5 (Homo sapiens, UniProt P54756); assay: SelectScreen kinase selectivity assay; type: biochemical; conditions: ten-dose 0.25–128 μM
Method: as §1

EPHA6 = EPHA6 (Homo sapiens, UniProt Q9UF33); assay: SelectScreen kinase selectivity assay; type: biochemical; conditions: ten-dose 0.25–128 μM
Method: as §1

EPHA8 = EPHA8 (Homo sapiens, UniProt P29322); assay: SelectScreen kinase selectivity assay; type: biochemical; conditions: ten-dose 0.25–128 μM
Method: as §1

EPHB1 = EPHB1 (Homo sapiens, UniProt P54762); assay: SelectScreen kinase selectivity assay; type: biochemical; conditions: ten-dose 0.25–128 μM
Method: as §1

EPHB3 = EPHB3 (Homo sapiens, UniProt P54753); assay: SelectScreen kinase selectivity assay; type: biochemical; conditions: ten-dose 0.25–128 μM
Method: as §1

EPHB4 = EPHB4 (Homo sapiens, UniProt P54760); assay: SelectScreen kinase selectivity assay; type: biochemical; conditions: ten-dose 0.25–128 μM
Method: as §1

FGFR1 = FGFR1 (Homo sapiens, UniProt P11362); assay: SelectScreen kinase selectivity assay; type: biochemical; conditions: ten-dose 0.25–128 μM
Method: as §1

FYN = FYN (Homo sapiens, UniProt P06241); assay: SelectScreen kinase selectivity assay; type: biochemical; conditions: ten-dose 0.25–128 μM
Method: as §1

HCK = HCK (Homo sapiens, UniProt P08631); assay: SelectScreen kinase selectivity assay; type: biochemical; conditions: ten-dose 0.25–128 μM
Method: as §1

INSRR = INSRR (Homo sapiens, UniProt P14616); assay: SelectScreen kinase selectivity assay; type: biochemical; conditions: ten-dose 0.25–128 μM
Method: as §1

ITK = ITK (Homo sapiens, UniProt Q08881); assay: SelectScreen kinase selectivity assay; type: biochemical; conditions: ten-dose 0.25–128 μM
Method: as §1

JAK1 = JAK1 (Homo sapiens, UniProt P23458); assay: SelectScreen kinase selectivity assay; type: biochemical; conditions: ten-dose 0.25–128 μM
Method: as §1

JAK2 = JAK2 (Homo sapiens, UniProt O60674); assay: SelectScreen kinase selectivity assay; type: biochemical; conditions: ten-dose 0.25–128 μM
Method: as §1

KIT = KIT (Homo sapiens, UniProt P10721); assay: SelectScreen kinase selectivity assay; type: biochemical; conditions: ten-dose 0.25–128 μM
Method: as §1

LTK = LTK (Homo sapiens, UniProt P29376); assay: SelectScreen kinase selectivity assay; type: biochemical; conditions: ten-dose 0.25–128 μM
Method: as §1

MERTK = MERTK (Homo sapiens, UniProt Q12866); assay: SelectScreen kinase selectivity assay; type: biochemical; conditions: ten-dose 0.25–128 μM
Method: as §1

MET = MET (Homo sapiens, UniProt P08581); assay: SelectScreen kinase selectivity assay; type: biochemical; conditions: ten-dose 0.25–128 μM
Method: as §1

MUSK = MUSK (Homo sapiens, UniProt O15146); assay: SelectScreen kinase selectivity assay; type: biochemical; conditions: ten-dose 0.25–128 μM
Method: as §1

NTRK2 = NTRK2 (Homo sapiens, UniProt Q16620); assay: SelectScreen kinase selectivity assay; type: biochemical; conditions: ten-dose 0.25–128 μM
Method: as §1

PDGFRA = PDGFRA (Homo sapiens, UniProt P16234); assay: SelectScreen kinase selectivity assay; type: biochemical; conditions: ten-dose 0.25–128 μM
Method: as §1

PDGFRB = PDGFRB (Homo sapiens, UniProt P09619); assay: SelectScreen kinase selectivity assay; type: biochemical; conditions: ten-dose 0.25–128 μM
Method: as §1

PIM1 = PIM1 (Homo sapiens, UniProt P11309); assay: SelectScreen kinase selectivity assay; type: biochemical; conditions: ten-dose 0.25–128 μM
Method: as §1

PTK2 = PTK2 (Homo sapiens, UniProt Q05397); assay: SelectScreen kinase selectivity assay; type: biochemical; conditions: ten-dose 0.25–128 μM
Method: as §1

ROS1 = ROS1 (Homo sapiens, UniProt P08922); assay: SelectScreen kinase selectivity assay; type: biochemical; conditions: ten-dose 0.25–128 μM
Method: as §1

ZAK = ZAK (Homo sapiens, UniProt Q9NYL2); assay: SelectScreen kinase selectivity assay; type: biochemical; conditions: ten-dose 0.25–128 μM
Method: as §1

ZAP70 = ZAP70 (Homo sapiens, UniProt P43403); assay: SelectScreen kinase selectivity assay; type: biochemical; conditions: ten-dose 0.25–128 μM
Method: as §1

NTRK2, sequence (Q16620 32-822): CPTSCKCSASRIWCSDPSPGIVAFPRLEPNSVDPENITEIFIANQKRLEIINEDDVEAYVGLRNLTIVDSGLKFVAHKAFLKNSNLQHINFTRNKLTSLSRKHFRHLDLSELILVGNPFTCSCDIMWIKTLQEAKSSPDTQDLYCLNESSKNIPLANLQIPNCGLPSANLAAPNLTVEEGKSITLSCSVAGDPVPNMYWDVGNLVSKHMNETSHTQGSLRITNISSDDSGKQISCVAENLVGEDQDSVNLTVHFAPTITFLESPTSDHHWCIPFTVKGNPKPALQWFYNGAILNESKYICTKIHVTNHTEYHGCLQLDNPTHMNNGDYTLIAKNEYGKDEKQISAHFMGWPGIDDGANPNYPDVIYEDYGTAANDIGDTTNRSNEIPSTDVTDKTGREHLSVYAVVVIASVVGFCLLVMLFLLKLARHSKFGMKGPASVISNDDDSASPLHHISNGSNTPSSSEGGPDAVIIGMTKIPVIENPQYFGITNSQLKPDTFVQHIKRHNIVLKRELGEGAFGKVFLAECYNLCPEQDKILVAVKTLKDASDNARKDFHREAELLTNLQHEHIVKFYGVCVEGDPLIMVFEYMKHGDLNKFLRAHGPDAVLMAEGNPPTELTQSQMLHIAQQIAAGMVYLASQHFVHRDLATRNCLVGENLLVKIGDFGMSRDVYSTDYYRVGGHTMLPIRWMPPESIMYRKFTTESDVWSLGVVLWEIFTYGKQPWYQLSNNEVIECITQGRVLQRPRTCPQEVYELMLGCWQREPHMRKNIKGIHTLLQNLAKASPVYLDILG
EPHA6, sequence (Q9UF33 23-1036): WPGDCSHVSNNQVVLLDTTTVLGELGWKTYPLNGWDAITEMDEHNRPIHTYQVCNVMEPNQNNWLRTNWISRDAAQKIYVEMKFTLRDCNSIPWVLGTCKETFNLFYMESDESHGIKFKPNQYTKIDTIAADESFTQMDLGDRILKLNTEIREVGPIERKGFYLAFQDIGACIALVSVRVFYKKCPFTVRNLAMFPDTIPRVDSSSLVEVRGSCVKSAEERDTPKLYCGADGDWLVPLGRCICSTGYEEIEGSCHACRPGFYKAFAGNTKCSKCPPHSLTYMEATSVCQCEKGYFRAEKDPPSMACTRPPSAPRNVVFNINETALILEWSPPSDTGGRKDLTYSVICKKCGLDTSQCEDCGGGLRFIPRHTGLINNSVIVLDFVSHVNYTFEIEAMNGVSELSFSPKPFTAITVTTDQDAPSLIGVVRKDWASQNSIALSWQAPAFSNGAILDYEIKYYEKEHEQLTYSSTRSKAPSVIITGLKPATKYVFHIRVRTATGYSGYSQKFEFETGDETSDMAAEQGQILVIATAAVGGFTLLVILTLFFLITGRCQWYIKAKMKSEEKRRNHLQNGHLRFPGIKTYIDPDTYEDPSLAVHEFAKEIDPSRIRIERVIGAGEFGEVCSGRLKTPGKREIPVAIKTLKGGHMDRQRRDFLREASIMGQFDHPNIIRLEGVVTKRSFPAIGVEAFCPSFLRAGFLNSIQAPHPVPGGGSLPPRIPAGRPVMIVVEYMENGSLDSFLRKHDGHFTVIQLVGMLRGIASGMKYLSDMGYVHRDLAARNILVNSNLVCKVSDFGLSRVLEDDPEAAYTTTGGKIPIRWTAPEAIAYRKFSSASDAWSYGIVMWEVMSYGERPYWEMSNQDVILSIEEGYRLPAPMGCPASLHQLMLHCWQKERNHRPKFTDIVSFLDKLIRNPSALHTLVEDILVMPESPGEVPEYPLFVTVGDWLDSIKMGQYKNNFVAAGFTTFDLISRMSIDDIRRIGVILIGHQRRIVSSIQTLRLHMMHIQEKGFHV
JAK2, sequence (O60674 whole entry): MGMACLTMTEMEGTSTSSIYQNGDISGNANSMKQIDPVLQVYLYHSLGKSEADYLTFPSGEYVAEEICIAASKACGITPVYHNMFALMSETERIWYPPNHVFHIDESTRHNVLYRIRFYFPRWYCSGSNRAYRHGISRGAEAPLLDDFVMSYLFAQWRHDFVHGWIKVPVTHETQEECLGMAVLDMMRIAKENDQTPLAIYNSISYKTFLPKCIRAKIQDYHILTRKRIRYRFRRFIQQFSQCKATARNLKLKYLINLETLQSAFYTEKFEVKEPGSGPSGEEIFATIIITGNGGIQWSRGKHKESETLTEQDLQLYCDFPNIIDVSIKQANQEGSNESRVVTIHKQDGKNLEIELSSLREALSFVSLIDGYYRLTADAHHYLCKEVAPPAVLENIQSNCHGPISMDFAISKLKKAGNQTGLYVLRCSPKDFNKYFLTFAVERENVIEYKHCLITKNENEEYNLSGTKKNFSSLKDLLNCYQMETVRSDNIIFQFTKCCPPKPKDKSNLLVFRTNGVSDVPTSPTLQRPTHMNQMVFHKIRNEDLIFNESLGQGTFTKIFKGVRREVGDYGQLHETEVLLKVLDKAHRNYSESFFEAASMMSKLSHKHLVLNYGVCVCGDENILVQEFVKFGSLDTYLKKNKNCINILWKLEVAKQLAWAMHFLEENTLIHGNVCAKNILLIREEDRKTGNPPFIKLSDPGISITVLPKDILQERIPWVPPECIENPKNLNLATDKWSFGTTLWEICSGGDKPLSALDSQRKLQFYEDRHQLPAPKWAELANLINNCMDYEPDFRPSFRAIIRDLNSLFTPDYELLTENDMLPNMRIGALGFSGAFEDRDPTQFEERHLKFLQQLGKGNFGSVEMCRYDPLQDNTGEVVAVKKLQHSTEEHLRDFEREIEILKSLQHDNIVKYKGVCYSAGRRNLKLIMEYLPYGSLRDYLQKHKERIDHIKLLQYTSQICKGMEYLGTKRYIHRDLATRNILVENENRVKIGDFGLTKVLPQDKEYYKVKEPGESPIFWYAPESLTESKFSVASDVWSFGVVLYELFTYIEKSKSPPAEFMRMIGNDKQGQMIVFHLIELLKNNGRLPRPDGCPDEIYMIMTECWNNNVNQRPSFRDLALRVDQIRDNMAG
ZAK, sequence (Q9NYL2 whole entry): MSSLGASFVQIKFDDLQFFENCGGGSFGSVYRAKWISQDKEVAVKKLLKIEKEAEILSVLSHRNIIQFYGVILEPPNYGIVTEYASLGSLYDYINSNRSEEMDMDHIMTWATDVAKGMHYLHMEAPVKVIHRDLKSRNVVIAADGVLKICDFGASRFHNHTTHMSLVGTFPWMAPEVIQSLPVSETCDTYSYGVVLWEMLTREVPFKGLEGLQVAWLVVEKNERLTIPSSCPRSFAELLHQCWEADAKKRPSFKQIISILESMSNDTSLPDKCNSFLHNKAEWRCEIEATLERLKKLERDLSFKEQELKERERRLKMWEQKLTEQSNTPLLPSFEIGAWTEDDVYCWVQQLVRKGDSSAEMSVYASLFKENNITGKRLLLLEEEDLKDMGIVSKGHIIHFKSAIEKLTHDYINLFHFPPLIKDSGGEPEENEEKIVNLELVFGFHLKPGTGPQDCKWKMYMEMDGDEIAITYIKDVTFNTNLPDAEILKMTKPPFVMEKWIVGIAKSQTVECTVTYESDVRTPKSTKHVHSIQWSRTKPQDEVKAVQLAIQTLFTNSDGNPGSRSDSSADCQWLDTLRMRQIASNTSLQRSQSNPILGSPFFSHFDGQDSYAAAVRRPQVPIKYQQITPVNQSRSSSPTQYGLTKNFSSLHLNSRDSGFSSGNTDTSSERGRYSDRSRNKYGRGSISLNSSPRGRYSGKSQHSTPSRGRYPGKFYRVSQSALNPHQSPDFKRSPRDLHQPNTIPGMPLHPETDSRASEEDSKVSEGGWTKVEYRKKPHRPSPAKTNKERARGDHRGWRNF
LTK, sequence (P29376 17-864): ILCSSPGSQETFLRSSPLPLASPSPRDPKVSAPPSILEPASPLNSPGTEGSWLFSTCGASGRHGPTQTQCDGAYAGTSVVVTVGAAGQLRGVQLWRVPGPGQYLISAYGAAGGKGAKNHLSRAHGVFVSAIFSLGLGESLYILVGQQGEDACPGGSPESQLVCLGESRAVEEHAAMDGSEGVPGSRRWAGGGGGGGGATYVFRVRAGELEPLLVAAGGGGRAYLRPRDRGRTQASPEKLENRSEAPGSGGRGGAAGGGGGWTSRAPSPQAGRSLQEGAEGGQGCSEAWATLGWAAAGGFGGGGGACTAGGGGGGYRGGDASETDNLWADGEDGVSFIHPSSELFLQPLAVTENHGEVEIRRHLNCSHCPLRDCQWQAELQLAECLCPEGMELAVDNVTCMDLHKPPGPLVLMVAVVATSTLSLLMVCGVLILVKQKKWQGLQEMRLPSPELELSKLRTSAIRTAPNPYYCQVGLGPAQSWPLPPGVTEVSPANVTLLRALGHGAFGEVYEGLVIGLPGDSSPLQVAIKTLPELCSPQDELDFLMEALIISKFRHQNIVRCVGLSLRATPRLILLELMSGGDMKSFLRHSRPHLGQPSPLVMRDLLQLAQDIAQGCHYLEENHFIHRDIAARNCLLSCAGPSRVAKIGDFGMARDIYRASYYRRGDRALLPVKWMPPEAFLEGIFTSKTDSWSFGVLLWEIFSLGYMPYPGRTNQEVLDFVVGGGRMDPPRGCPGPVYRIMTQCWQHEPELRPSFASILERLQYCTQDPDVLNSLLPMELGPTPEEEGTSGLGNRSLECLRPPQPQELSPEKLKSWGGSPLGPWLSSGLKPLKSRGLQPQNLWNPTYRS
PIM1, sequence (P11309 whole entry): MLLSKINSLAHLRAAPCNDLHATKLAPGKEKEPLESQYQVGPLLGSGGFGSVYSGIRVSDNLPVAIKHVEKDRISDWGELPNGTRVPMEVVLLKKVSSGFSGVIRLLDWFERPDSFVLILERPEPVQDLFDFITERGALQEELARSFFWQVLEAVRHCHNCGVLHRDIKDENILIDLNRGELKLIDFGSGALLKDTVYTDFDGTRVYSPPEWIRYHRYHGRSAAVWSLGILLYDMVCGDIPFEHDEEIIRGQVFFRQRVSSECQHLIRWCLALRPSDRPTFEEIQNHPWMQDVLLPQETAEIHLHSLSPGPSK

CCc1nc(C(N)=O)c(Nc2ccc(N3CCC(Nc4ccccc4)CC3)c(OC)c2)nc1NC1CCOC(C(O)CO)C1 (stereo not drawn) [FLIN-4]
IC50 (MV4-11 cells): 0.00131 ± 6e-05 µM
IC50 (BLK): > 10 µM
IC50 (BMX): > 10 µM
IC50 (CDK2): > 10 µM
IC50 (CSF1R): > 10 µM
IC50 (DDR1): > 10 µM
IC50 (DDR2): > 10 µM
IC50 (EPHA2): > 10 µM
IC50 (EPHA3): > 10 µM
IC50 (EPHA4): > 10 µM
IC50 (EPHA5): > 10 µM
IC50 (EPHA6): > 10 µM
IC50 (EPHA8): > 10 µM
IC50 (EPHB1): > 10 µM
IC50 (EPHB3): > 10 µM
IC50 (EPHB4): > 10 µM
IC50 (FGFR1): > 10 µM
IC50 (FYN): > 10 µM
IC50 (HCK): > 10 µM
IC50 (INSRR): > 10 µM
IC50 (ITK): > 10 µM
IC50 (JAK1): > 10 µM
IC50 (JAK2): > 10 µM
IC50 (KIT): > 10 µM
IC50 (LTK): > 10 µM
IC50 (MERTK): > 10 µM
IC50 (MET): > 10 µM
IC50 (MUSK): > 10 µM
IC50 (NTRK2): > 10 µM
IC50 (PDGFRA): > 10 µM
IC50 (PDGFRB): > 10 µM
IC50 (PIM1): > 10 µM
IC50 (PTK2): > 10 µM
IC50 (ROS1): > 10 µM
IC50 (ZAK): > 10 µM
IC50 (ZAP70): > 10 µM
